We go through 2 molecules from ChEMBL document CHEMBL1148797, “Structure-activity relationships in the binding of chemically derivatized CD4 to gp120 from human immunodeficiency virus” (J Med Chem, 2007).

By IC50 is commonly meant the concentration that gives 50% inhibition. High values mean weaker potency, low ones greater potency.

A short description of the assay: Inhibition of wild type HIV YU2 gp120 to CD4 binding. Further details: species or system Human immunodeficiency virus.

`CCN1C(=O)C=CC1=O` [N-ETHYLMALEIMIDE] came in with an IC50 of 3.22 µM.
For `O=C(O)c1cc(SSc2ccc([N+](=O)[O-])c(C(=O)O)c2)ccc1[N+](=O)[O-]` the value was 3.58 µM.
